In US20240360178A1, “MACROCYCLIC IMMUNOMODULATORS” (Bristol-Myers Squibb Company, priority 2021, published 2024):
Positions of bridges follow the written chain, without caps; N, C: chain ends. Non-standard residues stand in square brackets, D forms with d. Residues, ends and D or L forms follow the SMILES beside them. *: point of attachment. Phe(4-COOH) = N[C@@H](Cc1ccc(C(=O)O)cc1)C(=O)O; Phe(4-CH2NH2) = NCc1ccc(C[C@H](N)C(=O)O)cc1; Bip = N[C@@H](Cc1ccc(-c2ccccc2)cc1)C(=O)O; 1Nal = N[C@@H](Cc1cccc2ccccc12)C(=O)O; NMeF = CN[C@@H](Cc1ccccc1)C(=O)O; Cha = N[C@@H](CC1CCCCC1)C(=O)O; hSer = N[C@@H](CCO)C(=O)O; Carboxymethyl = O=C(O)C*; NMeA = CN[C@@H](C)C(=O)O; Orn = NCCC[C@H](N)C(=O)O; Dab = NCC[C@H](N)C(=O)O; Dap = NC[C@H](N)C(=O)O; Sar = CNCC(=O)O

Biological target: T1, human PD-1 (Jurkat-PD-1 cells) / PE-labeled human PD-L1-Ig (Homo sapiens, UniProt Q15116)
T1 construct: expressed in transfected cells; host or cells: Jurkat cell line over-expressing human PD-1
Experiment: Jurkat-PD-1 Cell Binding High-Content Screening Assay (CBA); Jurkat hPD1-PDL1 assay
Details: Jurkat cell line over-expressing human PD-1; PE-labeled PD-L1-Ig 20 nM final; compound incubated 2 hours at 37° C.; read-out: Jurkat HPD1-PDL1 IC50
Summary of the method: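 Binding of phycoerythrin-conjugated PD-L1-Ig (20 nM final) to PD-1-overexpressing Jurkat cells was read by high-content imaging. Cells in DMEM/10% FCS were exposed to compound for 2 hours at 37° C before labeled ligand was added.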

T1 sequence (Q15116 25-288): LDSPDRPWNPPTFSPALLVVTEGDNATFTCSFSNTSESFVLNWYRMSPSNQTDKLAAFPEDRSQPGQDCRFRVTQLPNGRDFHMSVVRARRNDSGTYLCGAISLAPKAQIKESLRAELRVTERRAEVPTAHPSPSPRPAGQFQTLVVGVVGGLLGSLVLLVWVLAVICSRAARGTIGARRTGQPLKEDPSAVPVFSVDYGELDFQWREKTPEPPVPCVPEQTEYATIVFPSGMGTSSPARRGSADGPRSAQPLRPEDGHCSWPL

Compound	IC50 [µM]
CC(C)C[C@@H]1NC(=O)[C@H](CCCNC(=N)N)NC(=O)[C@H](Cc2ccccc2)N(C)C(=O)[C@H](C)N(C)C(=O)[C@H](CCCNC(=N)N)NC(=O)[C@H](Cc2ccc(-c3ccccc3)cc2)NC(=O)[C@H](C(C)C)NC(=O)[C@H](Cc2c[nH]c3ccccc23)NC(=O)[C@H](CC(=O)O)NC(=O)[C@H](Cc2ccc(O)cc2)NC(=O)[C@H](CC2CCCCC2)NC(=O)CSC[C@@H](C(=O)NCC(N)=O)NC(=O)[C@H](CO)NC(=O)[C@H](C(C)C)NC1=O [Example 1248] ({CH2CO}-[Cha]YDWV[Bip]R[NMeA][NMeF]RLVSCG-NH2; thioether N-14)	0.36
CC(C)C[C@@H]1NC(=O)[C@H](CCCNC(=N)N)NC(=O)[C@H](Cc2ccccc2)N(C)C(=O)[C@H](C)N(C)C(=O)[C@H](CCC(=O)O)NC(=O)[C@H](Cc2ccc(-c3ccccc3)cc2)NC(=O)[C@H](C(C)C)NC(=O)[C@H](Cc2c[nH]c3ccccc23)NC(=O)[C@H](CC(=O)O)NC(=O)[C@H](Cc2ccc(O)cc2)NC(=O)[C@H](Cc2ccccc2)NC(=O)CSC[C@@H](C(=O)NCC(N)=O)NC(=O)[C@H](CO)NC(=O)[C@H](C(C)C)NC1=O [Example 1214] ({CH2CO}-FYDWV[Bip]E[NMeA][NMeF]RLVSCG-NH2; thioether N-14)	0.06
CC(C)C[C@@H]1NC(=O)[C@H](CCCN)NC(=O)[C@H](Cc2ccccc2)N(C)C(=O)[C@H](C)N(C)C(=O)[C@H](CCCNC(=N)N)NC(=O)[C@H](Cc2ccc(-c3ccccc3)cc2)NC(=O)[C@H](C(C)C)NC(=O)[C@H](Cc2c[nH]c3ccccc23)NC(=O)[C@H](CC(=O)O)NC(=O)[C@H](Cc2ccc(O)cc2)NC(=O)[C@H](CC(N)=O)NC(=O)CSC[C@@H](C(=O)N[C@@H](CCC(=O)O)C(N)=O)NC(=O)[C@H]([C@@H](C)O)NC(=O)[C@H](C(C)C)NC1=O [Example 1352] ({CH2CO}-NYDWV[Bip]R[NMeA][NMeF][Orn]LVTCE-NH2; thioether N-14)	0.42
CC(C)C[C@@H]1NC(=O)[C@H](Cc2c[nH]c3ccccc23)NC(=O)[C@H](CC(=O)O)NC(=O)[C@H](Cc2ccc(O)cc2)NC(=O)[C@H](Cc2ccccc2)NC(=O)CSC[C@@H](C(=O)N[C@@H](C)C(N)=O)NC(=O)[C@H](CO)NC(=O)[C@H](C(C)C)NC(=O)[C@H](CC(C)C)NC(=O)[C@H](CCN)NC(=O)[C@H]2CCCN2C(=O)[C@H](CCCN)NC(=O)[C@H](C(C)C)NC(=O)[C@H](Cc2ccc(-c3ccccc3)cc2)NC1=O [Example 1421] ({CH2CO}-FYDWL[Bip]V[Orn][dP][Dab]LVSCA-NH2; thioether N-14)	0.06
CC(C)C[C@@H]1NC(=O)[C@H](Cc2c[nH]c3ccccc23)NC(=O)[C@H](CC(=O)O)NC(=O)[C@H](Cc2ccc(O)cc2)NC(=O)[C@H](Cc2ccc(OCC(=O)O)cc2)NC(=O)CSC[C@@H](C(=O)NCC(N)=O)NC(=O)[C@H](CO)NC(=O)[C@H](C(C)C)NC(=O)[C@H](CC(C)C)NC(=O)[C@H](CC(N)=O)NC(=O)CN(C)C(=O)[C@H](C)N(C)C(=O)[C@H](C(C)C)NC(=O)[C@H](Cc2ccc(-c3ccccc3)cc2)NC1=O [Example 1137] ({CH2CO}-Y(Carboxymethyl)YDWL[Bip]V[NMeA][Sar]NLVSCG-NH2; thioether N-14)	0.56
CC(C)C[C@@H]1NC(=O)[C@H](Cc2c[nH]c3ccccc23)NC(=O)[C@H](CC(=O)O)NC(=O)[C@H](Cc2ccc(O)cc2)NC(=O)[C@H](Cc2ccccc2)NC(=O)CSC[C@@H](C(=O)N[C@@H](C)C(N)=O)NC(=O)[C@H](CO)NC(=O)[C@H](C(C)C)NC(=O)[C@H](CC(C)C)NC(=O)[C@H](CC(N)=O)NC(=O)[C@H]2CCCN2C(=O)[C@H](C)N(C)C(=O)[C@H](CCCNC(=N)N)NC(=O)[C@H](Cc2ccc(-c3ccccc3)cc2)NC1=O [Example 1027] ({CH2CO}-FYDWL[Bip]R[NMeA][dP]NLVSCA-NH2; thioether N-14)	0.05
CC(C)C[C@@H]1NC(=O)[C@H](Cc2c[nH]c3ccccc23)NC(=O)[C@H](CC(=O)O)NC(=O)[C@H](Cc2ccc(CN)cc2)NC(=O)[C@H](Cc2ccccc2)NC(=O)CSC[C@@H](C(=O)N[C@@H](C)C(N)=O)NC(=O)[C@H](CO)NC(=O)[C@H](C(C)C)NC(=O)[C@H](CC(C)C)NC(=O)[C@H](CC(N)=O)NC(=O)CN(C)C(=O)[C@H](C)N(C)C(=O)[C@H](C(C)C)NC(=O)[C@H](Cc2ccc(-c3ccccc3)cc2)NC1=O [Example 1101] ({CH2CO}-F[Phe(4-CH2NH2)]DWL[Bip]V[NMeA][Sar]NLVSCA-NH2; thioether N-14)	0.3
CC(C)C[C@@H]1NC(=O)[C@H](CC(N)=O)NC(=O)CN(C)C(=O)[C@H](C)N(C)C(=O)[C@H](C(C)C)NC(=O)[C@H](Cc2ccc(-c3ccccc3)cc2)NC(=O)[C@H](CC2CCCCC2)NC(=O)[C@H](Cc2c[nH]c3ccccc23)NC(=O)[C@H](CC(=O)O)NC(=O)[C@H](Cc2ccc(O)cc2)NC(=O)[C@H](Cc2ccccc2)NC(=O)CSC[C@@H](C(=O)NCC(N)=O)NC(=O)[C@H](CO)NC(=O)[C@H](C(C)C)NC1=O [Example 1145] ({CH2CO}-FYDW[Cha][Bip]V[NMeA][Sar]NLVSCG-NH2; thioether N-14)	0.64
CC(C)C[C@@H]1NC(=O)[C@H](CCCNC(=N)N)NC(=O)[C@H](Cc2ccccc2)N(C)C(=O)[C@H](C)N(C)C(=O)[C@H](CCCNC(=N)N)NC(=O)[C@H](Cc2ccc(-c3ccccc3)cc2)NC(=O)[C@H](C(C)C)NC(=O)[C@H](Cc2cccc3ccccc23)NC(=O)[C@H](CC(=O)O)NC(=O)[C@H](Cc2ccc(O)cc2)NC(=O)[C@H](Cc2ccccc2)NC(=O)CSC[C@@H](C(=O)NCC(N)=O)NC(=O)[C@H](CO)NC(=O)[C@H](C(C)C)NC1=O [Example 1240] ({CH2CO}-FYD[1Nal]V[Bip]R[NMeA][NMeF]RLVSCG-NH2; thioether N-14)	0.17
CC(C)C[C@@H]1NC(=O)[C@H](CCCNC(=N)N)NC(=O)[C@H](Cc2ccccc2)N(C)C(=O)[C@H](C)N(C)C(=O)[C@H](CCCN)NC(=O)[C@H](Cc2ccc(-c3ccccc3)cc2)NC(=O)[C@H](C(C)C)NC(=O)[C@H](Cc2c[nH]c3ccccc23)NC(=O)[C@H](CC(=O)O)NC(=O)[C@H](Cc2ccc(O)cc2)NC(=O)[C@H](Cc2ccccc2)NC(=O)CSC[C@@H](C(=O)NCC(N)=O)NC(=O)[C@H](CO)NC(=O)[C@H](C(C)C)NC1=O [Example 1243] ({CH2CO}-FYDWV[Bip][Orn][NMeA][NMeF]RLVSCG-NH2; thioether N-14)	0.06
COCC[C@@H]1NC(=O)[C@H](C(C)C)NC(=O)[C@H](CC(C)C)NC(=O)[C@H](CCCNC(=N)N)NC(=O)[C@H](Cc2ccccc2)N(C)C(=O)[C@H](C)N(C)C(=O)[C@H](CCCNC(=N)N)NC(=O)[C@H](Cc2ccc(-c3ccccc3)cc2)NC(=O)[C@H](C(C)C)NC(=O)[C@H](Cc2c[nH]c3ccccc23)NC(=O)[C@H](CC(=O)O)NC(=O)[C@H](Cc2ccc(O)cc2)NC(=O)[C@H](Cc2ccccc2)NC(=O)CSC[C@@H](C(=O)NCC(N)=O)NC1=O [Example 1259] ({CH2CO}-FYDWV[Bip]R[NMeA][NMeF]RLV[hSer](Me)CG-NH2; thioether N-14)	0.26
CC(C)C[C@@H]1NC(=O)[C@H](CCCNC(=N)N)NC(=O)[C@H](Cc2ccccc2)N(C)C(=O)[C@H](C)N(C)C(=O)[C@H](CCCNC(=N)N)NC(=O)[C@H](Cc2ccc(-c3ccccc3)cc2)NC(=O)[C@H](C(C)C)NC(=O)[C@H](Cc2c[nH]c3ccccc23)NC(=O)[C@H](CC(=O)O)NC(=O)[C@H](Cc2ccc(O)cc2)NC(=O)[C@H](CN)NC(=O)CSC[C@@H](C(=O)NCC(N)=O)NC(=O)[C@H](CO)NC(=O)[C@H](C(C)C)NC1=O [Example 1264] ({CH2CO}-[Dap]YDWV[Bip]R[NMeA][NMeF]RLVSCG-NH2; thioether N-14)	0.16
CC(C)C[C@@H]1NC(=O)[C@H](CCCNC(=N)N)NC(=O)[C@H](Cc2ccccc2)N(C)C(=O)[C@H](CCCN)NC(=O)[C@H](CCCNC(=N)N)NC(=O)[C@H](Cc2ccc(-c3ccccc3)cc2)NC(=O)[C@H](C(C)C)NC(=O)[C@H](Cc2c[nH]c3ccccc23)NC(=O)[C@H](CC(=O)O)NC(=O)[C@H](Cc2ccc(O)cc2)NC(=O)[C@H](CC(N)=O)NC(=O)CSC[C@@H](C(=O)N[C@@H](C)C(N)=O)NC(=O)[C@H]([C@@H](C)O)NC(=O)[C@H](C(C)C)NC1=O [Example 1383] ({CH2CO}-NYDWV[Bip]R[Orn][NMeF]RLVTCA-NH2; thioether N-14)	0.63
CC(C)C[C@@H]1NC(=O)[C@H](Cc2c[nH]c3ccccc23)NC(=O)[C@H](CC(=O)O)NC(=O)[C@H](Cc2ccc(O)cc2)NC(=O)[C@H](Cc2ccccc2)NC(=O)CSC[C@@H](C(=O)NCC(N)=O)NC(=O)[C@H]([C@@H](C)O)NC(=O)[C@H](C(C)C)NC(=O)[C@H](CC(C)C)NC(=O)[C@H](CCN)NC(=O)[C@H]2CCCN2C(=O)[C@H](CN)NC(=O)[C@H](C(C)C)NC(=O)[C@H](Cc2ccc(-c3ccccc3)cc2)NC1=O [Example 1407] ({CH2CO}-FYDWL[Bip]V[Dap][dP][Dab]LVTCG-NH2; thioether N-14)	0.28
CC(C)C[C@@H]1NC(=O)[C@H](Cc2c[nH]c3ccccc23)NC(=O)[C@H](CC(=O)O)NC(=O)[C@H](Cc2ccc(O)cc2)NC(=O)[C@H](Cc2ccccc2)NC(=O)CSC[C@@H](C(=O)N[C@@H](CO)C(N)=O)NC(=O)[C@H](CO)NC(=O)[C@H](C(C)C)NC(=O)[C@H](CC(C)C)NC(=O)[C@H](CC(N)=O)NC(=O)CN(C)C(=O)[C@H](C)N(C)C(=O)[C@H](C(C)C)NC(=O)[C@H](Cc2ccc(-c3ccccc3)cc2)NC1=O [Example 1173] ({CH2CO}-FYDWL[Bip]V[NMeA][Sar]NLVSCS-NH2; thioether N-14)	0.95
CC(C)C[C@@H]1NC(=O)CSC[C@@H](C(=O)NCC(N)=O)NC(=O)[C@H](CO)NC(=O)[C@H](C(C)C)NC(=O)[C@H](CC(C)C)NC(=O)[C@H](CCCNC(=N)N)NC(=O)[C@H](Cc2ccccc2)N(C)C(=O)[C@H](C)N(C)C(=O)[C@H](CCCNC(=N)N)NC(=O)[C@H](Cc2ccc(-c3ccccc3)cc2)NC(=O)[C@H](C(C)C)NC(=O)[C@H](Cc2c[nH]c3ccccc23)NC(=O)[C@H](CC(=O)O)NC(=O)[C@H](Cc2ccc(C(=O)O)cc2)NC1=O [Example 1295] ({CH2CO}-L[Phe(4-COOH)]DWV[Bip]R[NMeA][NMeF]RLVSCG-NH2; thioether N-14)	0.21
